In brackets after ≈: the same amount, converted by molar mass.
Tested on: not listed separately
Assay: Aqueous solubility of the compound
Assay type: physicochemical
Conditions: buffer; call rule not given here

Point of comparison: `COc1ccc(Cl)c(C2=Cc3cnc(Nc4ccc(N(C)C)cc4)nc3N3CCC(=O)N23)c1`, solubility 7 µg/mL (≈ 15.1 µM). Against it:
- CN(C)c1ccc(Nc2ncc3c(n2)N2CCC(=O)N2C(c2c(Cl)cccc2Cl)=C3)cc1 — within 1.5-fold, 5 µg/mL (≈ 10.7 µM)
- O=C1CCN2c3nc(Nc4ccc(N5CCOCC5)cc4)ncc3C=C(c3c(Cl)cccc3Cl)N12 — within 1.5-fold, 6 µg/mL (≈ 11.8 µM)
- CN1CCN(c2ccc(Nc3ncc4c(n3)N3CCC(=O)N3C(c3cc(O)ccc3Cl)=C4)cc2)CC1 — 1.6-fold higher, 11 µg/mL (≈ 21.8 µM)
- CCN(CC)CCOc1ccc(Nc2ncc3c(n2)N2CCC(=O)N2C(c2c(Cl)cccc2Cl)=C3)cc1 — 4.8-fold higher, 33.8 µg/mL (≈ 62.7 µM)
- CCN(CC)c1ccc(Nc2ncc3c(n2)N2CCC(=O)N2C(c2c(Cl)cccc2Cl)=C3)cc1 — 7-fold lower, 1 µg/mL (≈ 2.02 µM)
- CN(C)CCc1ccc(Nc2ncc3c(n2)N2CCC(=O)N2C(c2c(Cl)cccc2Cl)=C3)cc1 — within 1.5-fold, 10 µg/mL (≈ 20.2 µM)
- O=C1CCN2c3nc(Nc4ccccc4)ncc3C=C(c3c(Cl)cccc3Cl)N12 — 3.5-fold lower, 2 µg/mL (≈ 4.71 µM)
- COc1ccc(Cl)c(C2=Cc3cnc(Nc4ccc(F)cc4)nc3N3CCC(=O)N23)c1 — the same, 7 µg/mL (≈ 16 µM)
- CN(C)c1ccc(Nc2ncc3c(n2)N2CCC(=O)N2C(c2cc(O)ccc2Cl)=C3)cc1 — 7-fold lower, 1 µg/mL (≈ 2.23 µM)
- O=C1CCN2c3nc(Nc4ccc(F)cc4)ncc3C=C(c3c(Cl)cccc3Cl)N12 — 3.5-fold lower, 2 µg/mL (≈ 4.52 µM)
- COc1ccc(Nc2ncc3c(n2)N2CCC(=O)N2C(c2c(Cl)cccc2Cl)=C3)cc1 — within 1.5-fold, 5 µg/mL (≈ 11 µM)

Biological target: Proto-oncogene tyrosine-protein kinase Src (Homo sapiens, UniProt P12931)
Assay: Inhibition of human recombinant Src in presence of 10 mM ATP
Conditions: not given

Proto-oncogene tyrosine-protein kinase Src, sequence (P12931 2-536 limits assumed): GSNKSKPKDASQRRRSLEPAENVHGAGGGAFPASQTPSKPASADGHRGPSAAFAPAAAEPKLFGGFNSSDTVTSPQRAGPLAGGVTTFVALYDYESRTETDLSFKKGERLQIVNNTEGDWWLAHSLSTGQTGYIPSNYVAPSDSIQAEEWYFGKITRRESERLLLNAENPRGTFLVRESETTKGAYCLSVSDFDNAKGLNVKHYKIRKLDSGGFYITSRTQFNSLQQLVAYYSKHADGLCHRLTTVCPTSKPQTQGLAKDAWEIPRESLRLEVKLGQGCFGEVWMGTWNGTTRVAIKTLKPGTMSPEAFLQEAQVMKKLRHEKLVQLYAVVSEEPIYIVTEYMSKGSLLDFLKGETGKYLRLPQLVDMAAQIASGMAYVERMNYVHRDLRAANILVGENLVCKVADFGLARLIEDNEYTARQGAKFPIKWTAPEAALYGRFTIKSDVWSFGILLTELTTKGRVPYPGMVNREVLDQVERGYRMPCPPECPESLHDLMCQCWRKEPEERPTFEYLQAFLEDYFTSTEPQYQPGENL

Point of comparison: `O=C1CCN2c3nc(Nc4ccc(N5CCOCC5)cc4)ncc3C=C(c3c(Cl)cccc3Cl)N12`, IC50 104 nM. Against it:
- CN1CCN(c2ccc(Nc3ncc4c(n3)N3CCC(=O)N3C(c3cc(O)ccc3Cl)=C4)cc2)CC1 — 7.3-fold higher, 764 nM
- CCN(CC)CCOc1ccc(Nc2ncc3c(n2)N2CCC(=O)N2C(c2c(Cl)cccc2Cl)=C3)cc1 — 35-fold lower, 3 nM
- CN(C)c1ccc(Nc2ncc3c(n2)N2CCC(=O)N2C(c2cc(O)ccc2Cl)=C3)cc1 — 2.6-fold higher, 273 nM

Biological target: Tyrosine-protein kinase HCK (Homo sapiens, UniProt P08631)
Assay: Inhibition of human recombinant Hck in presence of 10 mM ATP
Conditions: not given

Tyrosine-protein kinase HCK, sequence (P08631 whole entry): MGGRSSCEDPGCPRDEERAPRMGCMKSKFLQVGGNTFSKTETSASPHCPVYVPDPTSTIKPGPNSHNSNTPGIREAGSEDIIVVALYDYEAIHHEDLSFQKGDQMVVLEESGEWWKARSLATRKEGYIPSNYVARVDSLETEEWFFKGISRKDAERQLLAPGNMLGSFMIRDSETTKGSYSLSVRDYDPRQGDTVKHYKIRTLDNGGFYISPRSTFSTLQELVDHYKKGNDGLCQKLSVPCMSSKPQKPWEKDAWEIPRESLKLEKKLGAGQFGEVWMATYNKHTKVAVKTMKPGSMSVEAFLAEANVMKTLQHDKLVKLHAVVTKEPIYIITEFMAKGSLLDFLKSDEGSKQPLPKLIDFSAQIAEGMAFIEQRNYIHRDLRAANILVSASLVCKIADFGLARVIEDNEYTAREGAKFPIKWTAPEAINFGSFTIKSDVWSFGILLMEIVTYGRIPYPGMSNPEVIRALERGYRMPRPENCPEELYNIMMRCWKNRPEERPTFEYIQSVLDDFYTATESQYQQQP

Point of comparison: `CN1CCN(c2ccc(Nc3ncc4c(n3)N3CCC(=O)N3C(c3cc(O)ccc3Cl)=C4)cc2)CC1`, IC50 456 nM. Against it:
- O=C1CCN2c3nc(Nc4ccc(N5CCOCC5)cc4)ncc3C=C(c3c(Cl)cccc3Cl)N12 — 2.9-fold lower, 160 nM
- CCN(CC)CCOc1ccc(Nc2ncc3c(n2)N2CCC(=O)N2C(c2c(Cl)cccc2Cl)=C3)cc1 — 9.5-fold lower, 48 nM
- CN(C)c1ccc(Nc2ncc3c(n2)N2CCC(=O)N2C(c2cc(O)ccc2Cl)=C3)cc1 — within 1.5-fold, 546 nM

Tested on: not listed separately
Assay: Metabolic stability in Sprague-Dawley rat liver microsome after 1 hr
Assay type: ADME
Conditions: liver microsomes, read-out: Stability

For `CCN(CC)CCOc1ccc(Nc2ncc3c(n2)N2CCC(=O)N2C(c2c(Cl)cccc2Cl)=C3)cc1`, the remaining at 1 h was over 84%.

Tested on: not listed separately
Assay: Bioavailability in rat
Assay type: ADME, organism-based
Conditions: in vivo

`CCN(CC)CCOc1ccc(Nc2ncc3c(n2)N2CCC(=O)N2C(c2c(Cl)cccc2Cl)=C3)cc1` showed a bioavailability of 14%.

Tested on: not listed separately
Assay: Half life in rat
Assay type: ADME, organism-based
Conditions: in vivo

For `CCN(CC)CCOc1ccc(Nc2ncc3c(n2)N2CCC(=O)N2C(c2c(Cl)cccc2Cl)=C3)cc1`, the half-life was 1.5 h.

Tested on: Jurkat
Assay: Inhibition of anti-human CD3 epsilon-stimulated IL2 production in Jurkat E6-1 T cells
Assay type: functional, cell-based
Conditions: not given

Point of comparison: `CCN(CC)CCOc1ccc(Nc2ncc3c(n2)N2CCC(=O)N2C(c2c(Cl)cccc2Cl)=C3)cc1`, IC50 3.21 nM. Against it:
- O=C1CCN2c3nc(Nc4ccc(N5CCOCC5)cc4)ncc3C=C(c3c(Cl)cccc3Cl)N12 — 1.6-fold lower, 2 nM
- CN1CCN(c2ccc(Nc3ncc4c(n3)N3CCC(=O)N3C(c3cc(O)ccc3Cl)=C4)cc2)CC1 — 1.5-fold lower, 2.1 nM
- CN(C)c1ccc(Nc2ncc3c(n2)N2CCC(=O)N2C(c2cc(O)ccc2Cl)=C3)cc1 — 5.9-fold lower, 0.546 nM

Biological target: Tyrosine-protein kinase Lck (Homo sapiens, UniProt P06239)
Assay: Inhibition of human recombinant Lck in presence of 10 mM ATP
Conditions: not given

Tyrosine-protein kinase Lck, sequence (P06239 whole entry): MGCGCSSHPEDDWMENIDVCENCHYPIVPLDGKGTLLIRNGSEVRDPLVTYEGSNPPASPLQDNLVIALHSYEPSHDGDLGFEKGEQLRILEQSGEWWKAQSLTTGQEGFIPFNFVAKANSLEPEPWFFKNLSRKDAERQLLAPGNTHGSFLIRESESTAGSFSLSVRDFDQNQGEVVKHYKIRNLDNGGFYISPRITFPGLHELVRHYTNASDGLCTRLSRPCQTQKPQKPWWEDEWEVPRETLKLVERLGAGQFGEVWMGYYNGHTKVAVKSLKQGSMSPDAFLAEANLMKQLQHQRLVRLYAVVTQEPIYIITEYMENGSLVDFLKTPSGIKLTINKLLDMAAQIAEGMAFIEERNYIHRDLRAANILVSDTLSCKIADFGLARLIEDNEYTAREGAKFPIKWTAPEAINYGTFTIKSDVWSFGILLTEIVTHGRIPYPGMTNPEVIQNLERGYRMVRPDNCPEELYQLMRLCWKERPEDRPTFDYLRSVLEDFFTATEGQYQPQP

In the case of `CN1C(c2ccccc2Cl)=Cc2cnc(Nc3ccc(F)cc3)nc2N1C`, the IC50 is reported as “Not Active”.

Same assay, conditions: read-out: IC50

Point of comparison: `COc1ccc(Cl)c(C2=Cc3cnc(Nc4ccc(F)cc4)nc3N3CCC(=O)N23)c1`, IC50 4800 nM. Against it:
- COc1cccc(Nc2ncc3c(n2)N2CCC(=O)N2C(c2c(Cl)cccc2Cl)=C3)c1 — 27-fold lower, 179 nM
- CN(C)c1ccc(Nc2ncc3c(n2)N2CCC(=O)N2C(c2c(Cl)cccc2Cl)=C3)cc1 — 180-fold lower, 26 nM
- O=C1CCN2c3nc(Nc4ccc(N5CCOCC5)cc4)ncc3C=C(c3c(Cl)cccc3Cl)N12 — 1600-fold lower, 3 nM
- CN1CCN(c2ccc(Nc3ncc4c(n3)N3CCC(=O)N3C(c3cc(O)ccc3Cl)=C4)cc2)CC1 — 100-fold lower, 47 nM
- CCN(CC)CCOc1ccc(Nc2ncc3c(n2)N2CCC(=O)N2C(c2c(Cl)cccc2Cl)=C3)cc1 — 2400-fold lower, 2 nM
- CCN(CC)c1ccc(Nc2ncc3c(n2)N2CCC(=O)N2C(c2c(Cl)cccc2Cl)=C3)cc1 — 110-fold lower, 43 nM
- COC(=O)c1ccc(Nc2ncc3c(n2)N2CCC(=O)N2C(c2c(Cl)cccc2Cl)=C3)cc1 — 34-fold lower, 143 nM
- CN1C(c2c(Cl)cccc2Cl)=Cc2cnc(Nc3ccc(F)cc3)nc2N1C — 1.5-fold lower, 3200 nM
- CN(C)CCc1ccc(Nc2ncc3c(n2)N2CCC(=O)N2C(c2c(Cl)cccc2Cl)=C3)cc1 — 230-fold lower, 21 nM
- COc1ccc(Cl)c(C2=Cc3cnc(Nc4ccc(N(C)C)cc4)nc3N3CCC(=O)N23)c1 — 1.7-fold lower, 2840 nM
- O=C1CCN2c3nc(Nc4ccccc4)ncc3C=C(c3c(Cl)cccc3Cl)N12 — 26-fold lower, 182 nM
- CNc1ncc2c(n1)N1CCC(=O)N1C(c1c(Cl)cccc1Cl)=C2 — 1.7-fold lower, 2810 nM
- CCOc1ccc(Nc2ncc3c(n2)N2CCC(=O)N2C(c2c(Cl)cccc2Cl)=C3)cc1 — 17-fold lower, 285 nM
- CN(C)c1ccc(Nc2ncc3c(n2)N2CCC(=O)N2C(c2cc(O)ccc2Cl)=C3)cc1 — 480-fold lower, 10 nM
- O=C1CCN2c3nc(Nc4ccc(F)cc4)ncc3C=C(c3c(Cl)cccc3Cl)N12 — 39-fold lower, 124 nM
- COc1ccc(Nc2ncc3c(n2)N2CCC(=O)N2C(c2c(Cl)cccc2Cl)=C3)cc1 — 68-fold lower, 71 nM
- COc1ccccc1Nc1ncc2c(n1)N1CCC(=O)N1C(c1c(Cl)cccc1Cl)=C2 — 1.5-fold higher, 7270 nM
